In brackets after ≈: the same amount, converted by molar mass. Activity calls are given as the source filed them. No cut-off for these calls is given here.
Assays:
Salmonella typhi [1] = assay: Antibacterial activity against Salmonella typhi at 10 ug after 24 hrs by disc diffusion assay; type: functional, Salmonella enterica subsp. enterica serovar Typhi; conditions: Salmonella enterica, read-out: IZ
Salmonella typhi [2] = assay: Antibacterial activity against Salmonella typhi at 15 ug after 24 hrs by disc diffusion assay; type: functional, Salmonella enterica subsp. enterica serovar Typhi; conditions: Salmonella enterica, read-out: IZ
Salmonella typhi [3] = assay: Antibacterial activity against Salmonella typhi at 20 ug after 24 hrs by disc diffusion assay; type: functional, Salmonella enterica subsp. enterica serovar Typhi; conditions: Salmonella enterica, read-out: IZ
Salmonella typhi [4] = assay: Antibacterial activity against Salmonella typhi at 25 ug after 24 hrs by disc diffusion assay; type: functional, Salmonella enterica subsp. enterica serovar Typhi; conditions: Salmonella enterica, read-out: IZ
Bacillus subtilis [5] = assay: Antibacterial activity against Bacillus subtilis at 10 ug after 24 hrs by disc diffusion assay; type: functional; conditions: read-out: IZ
Bacillus subtilis [6] = assay: Antibacterial activity against Bacillus subtilis at 15 ug after 24 hrs by disc diffusion assay; type: functional; conditions: read-out: IZ
Bacillus subtilis [7] = assay: Antibacterial activity against Bacillus subtilis at 20 ug after 24 hrs by disc diffusion assay; type: functional; conditions: read-out: IZ
Bacillus subtilis [8] = assay: Antibacterial activity against Bacillus subtilis at 25 ug after 24 hrs by disc diffusion assay; type: functional; conditions: read-out: IZ
Escherichia coli [9] = assay: Inhibition of Escherichia coli DNA gyrase assessed as inhibition of DNA supercoiling activity using pBR322 DNA as substrate at […] after 3 hrs by agarose gel electrophoresis
Escherichia coli [10] = assay: Inhibition of Escherichia coli DNA gyrase -mediated DNA relaxation using pBR322 DNA as substrate at […] after 1 hrs by agarose gel electrophoresis
Escherichia coli [11] = assay: Inhibition of DNA gyrase mRNA expression in Escherichia coli measured up to 24 hrs by RT-PCR; type: functional, organism-based
Staphylococcus aureus [12] = assay: Antibacterial activity against Staphylococcus aureus after 18 to 20 hrs by broth micro dilution assay; type: functional
Escherichia coli [13] = assay: Antibacterial activity against Escherichia coli after 18 to 20 hrs by broth micro dilution assay; type: functional
Klebsiella pneumoniae [14] = assay: Antibacterial activity against Klebsiella pneumoniae after 18 to 20 hrs by broth micro dilution assay; type: functional
Pseudomonas aeruginosa [15] = assay: Antibacterial activity against Pseudomonas aeruginosa after 18 to 20 hrs by broth micro dilution assay; type: functional
Salmonella typhi [16] = assay: Antibacterial activity against Salmonella typhi after 18 to 20 hrs by broth micro dilution assay; type: functional, Salmonella enterica subsp. enterica serovar Typhi; conditions: Salmonella enterica
Bacillus subtilis [17] = assay: Antibacterial activity against Bacillus subtilis after 18 to 20 hrs by broth micro dilution assay; type: functional
Staphylococcus aureus [18] = assay: Antibacterial activity against Staphylococcus aureus at 5 ug after 24 hrs by disc diffusion assay; type: functional; conditions: read-out: IZ
Staphylococcus aureus [19] = assay: Antibacterial activity against Staphylococcus aureus at 10 ug after 24 hrs by disc diffusion assay; type: functional; conditions: read-out: IZ
Staphylococcus aureus [20] = assay: Antibacterial activity against Staphylococcus aureus at 15 ug after 24 hrs by disc diffusion assay; type: functional; conditions: read-out: IZ
Staphylococcus aureus [21] = assay: Antibacterial activity against Staphylococcus aureus at 20 ug after 24 hrs by disc diffusion assay; type: functional; conditions: read-out: IZ
Staphylococcus aureus [22] = assay: Antibacterial activity against Staphylococcus aureus at 25 ug after 24 hrs by disc diffusion assay; type: functional; conditions: read-out: IZ
Escherichia coli [23] = assay: Antibacterial activity against Escherichia coli at 5 ug after 24 hrs by disc diffusion assay; type: functional; conditions: read-out: IZ
Escherichia coli [24] = assay: Antibacterial activity against Escherichia coli at 10 ug after 24 hrs by disc diffusion assay; type: functional; conditions: read-out: IZ
Escherichia coli [25] = assay: Antibacterial activity against Escherichia coli at 15 ug after 24 hrs by disc diffusion assay; type: functional; conditions: read-out: IZ
Escherichia coli [26] = assay: Antibacterial activity against Escherichia coli at 20 ug after 24 hrs by disc diffusion assay; type: functional; conditions: read-out: IZ
Escherichia coli [27] = assay: Antibacterial activity against Escherichia coli at 25 ug after 24 hrs by disc diffusion assay; type: functional; conditions: read-out: IZ
Pseudomonas aeruginosa [28] = assay: Antibacterial activity against Pseudomonas aeruginosa at 5 ug after 24 hrs by disc diffusion assay; type: functional; conditions: read-out: IZ
Pseudomonas aeruginosa [29] = assay: Antibacterial activity against Pseudomonas aeruginosa at 10 ug after 24 hrs by disc diffusion assay; type: functional; conditions: read-out: IZ
Pseudomonas aeruginosa [30] = assay: Antibacterial activity against Pseudomonas aeruginosa at 15 ug after 24 hrs by disc diffusion assay; type: functional; conditions: read-out: IZ
Pseudomonas aeruginosa [31] = assay: Antibacterial activity against Pseudomonas aeruginosa at 20 ug after 24 hrs by disc diffusion assay; type: functional; conditions: read-out: IZ
Pseudomonas aeruginosa [32] = assay: Antibacterial activity against Pseudomonas aeruginosa at 25 ug after 24 hrs by disc diffusion assay; type: functional; conditions: read-out: IZ
Klebsiella pneumoniae [33] = assay: Antibacterial activity against Klebsiella pneumoniae at 5 ug after 24 hrs by disc diffusion assay; type: functional; conditions: read-out: IZ
Klebsiella pneumoniae [34] = assay: Antibacterial activity against Klebsiella pneumoniae at 10 ug after 24 hrs by disc diffusion assay; type: functional; conditions: read-out: IZ
Klebsiella pneumoniae [35] = assay: Antibacterial activity against Klebsiella pneumoniae at 15 ug after 24 hrs by disc diffusion assay; type: functional; conditions: read-out: IZ
Klebsiella pneumoniae [36] = assay: Antibacterial activity against Klebsiella pneumoniae at 20 ug after 24 hrs by disc diffusion assay; type: functional; conditions: read-out: IZ
Klebsiella pneumoniae [37] = assay: Antibacterial activity against Klebsiella pneumoniae at 25 ug after 24 hrs by disc diffusion assay; type: functional; conditions: read-out: IZ
Salmonella typhi [38] = assay: Antibacterial activity against Salmonella typhi at 5 ug after 24 hrs by disc diffusion assay; type: functional, Salmonella enterica subsp. enterica serovar Typhi; conditions: Salmonella enterica, read-out: IZ
Bacillus subtilis [39] = assay: Antibacterial activity against Bacillus subtilis at 5 ug after 24 hrs by disc diffusion assay; conditions: read-out: IZ

CCC1[C@H]2c3c(n(C)c4ccccc4c3=O)OC(C)(C)[C@@H]2CN1OS(=O)(=O)c1ccc(C)cc1 (mixture of isomers) gave a zone of inhibition at 10 µg/disc (Salmonella typhi [1]) of 16 mm, a zone of inhibition at 15 µg/disc (Salmonella typhi [2]) of 18 mm and a zone of inhibition at 20 µg/disc (Salmonella typhi [3]) of 22 mm. It also gave a zone of inhibition at 25 µg/disc (Salmonella typhi [4]) of 24 mm, a zone of inhibition at 10 µg/disc (Bacillus subtilis [5]) of 8 mm and a zone of inhibition at 15 µg/disc (Bacillus subtilis [6]) of 9 mm. For the same molecule, the zone of inhibition at 20 µg/disc (Bacillus subtilis [7]) was 10 mm, the zone of inhibition at 25 µg/disc (Bacillus subtilis [8]) was 11 mm and the “DNA gyrase inhibition (active/inactive)” value (Escherichia coli [9]) was “Active”. The inhibition (Escherichia coli [10]) was “Active”, the “inhibition of gyrase mRNA expression (active/not active)” value (Escherichia coli [11]) was “inactive” and the MIC50 (Staphylococcus aureus [12]) was 0.5 µg/mL. It also gave an MIC90 (Staphylococcus aureus [12]) of 0.5 µg/mL, an MIC50 (Escherichia coli [13]) of 0.5 µg/mL and an MIC90 (Escherichia coli [13]) of 0.5 µg/mL. The MIC50 (Klebsiella pneumoniae [14]) was 0.5 µg/mL, the MIC90 (Klebsiella pneumoniae [14]) was 0.5 µg/mL and the MIC50 (Pseudomonas aeruginosa [15]) was 0.5 µg/mL. For the same molecule, the MIC90 (Pseudomonas aeruginosa [15]) was 0.5 µg/mL, the MIC50 (Salmonella typhi [16]) was 0.5 µg/mL and the MIC90 (Salmonella typhi [16]) was 0.5 µg/mL. For the same molecule, the MIC50 (Bacillus subtilis [17]) was 0.5 µg/mL, the MIC90 (Bacillus subtilis [17]) was 0.5 µg/mL and the zone of inhibition at 5 µg/disc (Staphylococcus aureus [18]) was 20 mm. It also gave a zone of inhibition at 10 µg/disc (Staphylococcus aureus [19]) of 24 mm, a zone of inhibition at 15 µg/disc (Staphylococcus aureus [20]) of 26 mm and a zone of inhibition at 20 µg/disc (Staphylococcus aureus [21]) of 30 mm. It also gave a zone of inhibition at 25 µg/disc (Staphylococcus aureus [22]) of 36 mm, a zone of inhibition at 5 µg/disc (Escherichia coli [23]) of 12 mm and a zone of inhibition at 10 µg/disc (Escherichia coli [24]) of 14 mm. It also gave a zone of inhibition at 15 µg/disc (Escherichia coli [25]) of 16 mm, a zone of inhibition at 20 µg/disc (Escherichia coli [26]) of 22 mm and a zone of inhibition at 25 µg/disc (Escherichia coli [27]) of 23 mm. For the same molecule, the zone of inhibition at 5 µg/disc (Pseudomonas aeruginosa [28]) was 24 mm, the zone of inhibition at 10 µg/disc (Pseudomonas aeruginosa [29]) was 26 mm and the zone of inhibition at 15 µg/disc (Pseudomonas aeruginosa [30]) was 28 mm. For the same molecule, the zone of inhibition at 20 µg/disc (Pseudomonas aeruginosa [31]) was 34 mm, the zone of inhibition at 25 µg/disc (Pseudomonas aeruginosa [32]) was 36 mm and the zone of inhibition at 5 µg/disc (Klebsiella pneumoniae [33]) was 10 mm. For the same molecule, the zone of inhibition at 10 µg/disc (Klebsiella pneumoniae [34]) was 14 mm, the zone of inhibition at 15 µg/disc (Klebsiella pneumoniae [35]) was 16 mm and the zone of inhibition at 20 µg/disc (Klebsiella pneumoniae [36]) was 24 mm. It also gave a zone of inhibition at 25 µg/disc (Klebsiella pneumoniae [37]) of 26 mm and a zone of inhibition at 5 µg/disc (Salmonella typhi [38]) of 10 mm.

O=C(O)c1cn(C2CC2)c2cc(N3CCNCC3)c(F)cc2c1=O [CIPROFLOXACIN] was tested, and the zone of inhibition at 10 µg/disc (Salmonella typhi [1]) was 16 mm, the zone of inhibition at 15 µg/disc (Salmonella typhi [2]) was 18 mm and the zone of inhibition at 20 µg/disc (Salmonella typhi [3]) was 22 mm. It also gave a zone of inhibition at 25 µg/disc (Salmonella typhi [4]) of 24 mm, a zone of inhibition at 5 µg/disc (Bacillus subtilis [39]) of 6 mm and a zone of inhibition at 10 µg/disc (Bacillus subtilis [5]) of 7 mm. It also gave a zone of inhibition at 15 µg/disc (Bacillus subtilis [6]) of 9 mm, a zone of inhibition at 20 µg/disc (Bacillus subtilis [7]) of 10 mm and a zone of inhibition at 25 µg/disc (Bacillus subtilis [8]) of 12 mm. For the same molecule, the “DNA gyrase inhibition (active/inactive)” value (Escherichia coli [9]) was “Active”, the inhibition (Escherichia coli [10]) was “Active” and the MIC50 (Staphylococcus aureus [12]) was 0.5 µg/mL (≈ 1.51 µM). It also gave an MIC90 (Staphylococcus aureus [12]) of 1 µg/mL (≈ 3.02 µM), an MIC90 (Escherichia coli [13]) of 1 µg/mL (≈ 3.02 µM) and an MIC50 (Klebsiella pneumoniae [14]) of 0.5 µg/mL (≈ 1.51 µM). The MIC90 (Klebsiella pneumoniae [14]) was 1 µg/mL (≈ 3.02 µM), the MIC50 (Pseudomonas aeruginosa [15]) was 0.5 µg/mL (≈ 1.51 µM) and the MIC90 (Pseudomonas aeruginosa [15]) was 1 µg/mL (≈ 3.02 µM). For the same molecule, the MIC50 (Salmonella typhi [16]) was 0.5 µg/mL (≈ 1.51 µM), the MIC90 (Salmonella typhi [16]) was 1 µg/mL (≈ 3.02 µM) and the MIC50 (Bacillus subtilis [17]) was 0.5 µg/mL (≈ 1.51 µM). For the same molecule, the MIC90 (Bacillus subtilis [17]) was 1 µg/mL (≈ 3.02 µM), the zone of inhibition at 5 µg/disc (Staphylococcus aureus [18]) was 22 mm and the zone of inhibition at 10 µg/disc (Staphylococcus aureus [19]) was 24 mm. The zone of inhibition at 15 µg/disc (Staphylococcus aureus [20]) was 26 mm, the zone of inhibition at 20 µg/disc (Staphylococcus aureus [21]) was 30 mm and the zone of inhibition at 25 µg/disc (Staphylococcus aureus [22]) was 36 mm. The zone of inhibition at 10 µg/disc (Escherichia coli [24]) was 16 mm, the zone of inhibition at 15 µg/disc (Escherichia coli [25]) was 18 mm and the zone of inhibition at 5 µg/disc (Pseudomonas aeruginosa [28]) was 12 mm. For the same molecule, the zone of inhibition at 10 µg/disc (Pseudomonas aeruginosa [29]) was 14 mm, the zone of inhibition at 15 µg/disc (Pseudomonas aeruginosa [30]) was 16 mm and the zone of inhibition at 20 µg/disc (Pseudomonas aeruginosa [31]) was 20 mm. For the same molecule, the zone of inhibition at 25 µg/disc (Pseudomonas aeruginosa [32]) was 23 mm, the zone of inhibition at 5 µg/disc (Klebsiella pneumoniae [33]) was 24 mm and the zone of inhibition at 10 µg/disc (Klebsiella pneumoniae [34]) was 26 mm. It also gave a zone of inhibition at 15 µg/disc (Klebsiella pneumoniae [35]) of 30 mm, a zone of inhibition at 20 µg/disc (Klebsiella pneumoniae [36]) of 34 mm and a zone of inhibition at 25 µg/disc (Klebsiella pneumoniae [37]) of 36 mm. The zone of inhibition at 5 µg/disc (Salmonella typhi [38]) was 14 mm.

Source: ChEMBL document CHEMBL1781873, “Synthesis and antibacterial property of pyrrolopyrano quinolinones and pyrroloquinolines” (2011)
